From patent US20240228446A1, “PREPARATION METHOD FOR BICYCLIC COMPOUND AND APPLICATION AS ANTIFUNGAL AGENT” (priority 2021, published 2024)
≈ marks a conversion by molar mass, not a printed value.

Test system: Candida albicans ATCC MYA-2876
Test: Minimal inhibitory concentration (MIC) test on fungal growth (CLSI M27, yeasts)
Format: cell-based
Conditions: Candida albicans, 24 h, read-out: MIC Candida albicans ATCC MYA-2876
Procedure: • RPMI1640 medium: Brand: Gibco, article number: 31800-014 • Sabouraud dextrose agar (SDA): Brand: Hope Bio, article number: HB0253-81 • Voriconazole: Brand: Adamas, article number: 22105A • Amphotericin B: Brand: AbCam, article number: ab141199
MIC test was conducted in accordance with the guidelines and requirements of CLSI M27 (for yeasts) and M38 (for Aspergillus).
Strain preparation: The strains were inoculated 1 day in advance by streaking on SDA plates with glycerol strains stored at −80° C. The strains were cultured at 35° C. and 40 to 60% humidity for 18 to 24 hours. Streak inoculation of Aspergillus fumigatus and Cryptococcus neoformans was required to be done 3 days and 2 days in advance, respectively.
Preparation of culture medium and compounds: The liquid culture medium RPMI was prepared with pure water, and 0.165 mol/L MOPS was added to adjust the pH to 7.0. The mixture was filtered with a 0.22 μm-membrane filter, sterilized, and stored at 4° C. (no more than 3 months). 0.85% physiological saline was sterilized at 121° C. for 30 min and then stored at room temperature (no more than 1 week). The compounds were dissolved in DMSO to 12.8 mg/mL and stored at −20° C.
For yeast, 3 to 5 colonies were selected from the SDA plate on the day of testing and fully suspended in 5 mL of sterilized 0.85% physiological saline. The turbidity of the bacterial suspension was measured with a turbidimeter, and the turbidity was adjusted to approximately 0.2. The bacterial suspension was 50-fold and 20-fold (1000-fold in total) diluted in RPMI1640 medium, respectively, to serve as the inoculum. The final inoculum concentration was 500 to 2500 CFU/mL.
The compound was diluted to the highest 800 μg/mL (or 400 μg/mL) with DMSO, and a 10-step 2-fold gradient dilution was performed, resulting in 11 concentrations. 2 μL of the gradient-diluted compound was transferred to the corresponding wells of a 96-well plate, and then 198 μL of the inoculum was transferred to the test plate. The plate was incubated at 35° C. for 24 hours (Aspergillus fumigatus and Cryptococcus neoformans were incubated for 48 and 72 hours, respectively).
After the incubation, the growth of the fungi was visually observed. The lowest concentration of the compound that inhibited the growth of yeast by 50% (inhibited Aspergillus by 100%) was defined as the minimum inhibitory concentration (MIC, μg/mL). A magnifying glass or reading at OD530 nm could be used to assist in determining the MIC. Photos were taken of the test plates for record keeping.

Row | SMILES | MIC [µg/mL]
1 | CN(C)CCOc1ccc(C23CC(C(F)(F)C(O)(Cn4cnnn4)c4ccc(F)cc4F)(C2)C3)cc1 (stereo not shown) [Compound 64] | 0.06 (≈ 0.119 µM)
2 | OCC(F)(F)CNc1ccc(C23CC(C(F)(F)C(O)(Cn4cnnn4)c4ccc(F)cc4F)(C2)C3)cn1 (stereo not shown) [Compound 104] | 0.03 (≈ 0.0568 µM)
3 | OC(Cn1cnnn1)(c1ccc(F)cc1F)C(F)(F)C12CC(c3ccc(OCC(F)(F)F)nn3)(C1)C2 (stereo not shown) [Compound 114] | 0.06 (≈ 0.116 µM)
4 | OC(COc1ccc(C23CC(C(F)(F)C(O)(Cn4cnnn4)c4ccc(F)cc4F)(C2)C3)cc1)CN1CCOCC1 (stereo not shown) [Compound 57] | 0.06 (≈ 0.104 µM)
5 | NC[C@H](O)COc1ccc(C23CC(C(F)(F)C(O)(Cn4cnnn4)c4ccc(F)cc4F)(C2)C3)cc1 (stereo partly shown) [Compound 52] | 1 (≈ 1.97 µM)

Same assay, conditions: Candida albicans; lowest concentration inhibiting growth of yeast by 50%; 35° C., 24 hours; RPMI1640; read-out: MIC Candida albicans ATCC MYA-2876

Row | SMILES | MIC [µg/mL]
6 | N#Cc1ccc(C23CC(C(F)(F)[C@@](O)(Cn4cncn4)c4cc(F)ccc4F)(C2)C3)cc1 [Compound 29B] | 0.125 (≈ 0.283 µM)
7 | O[C@](Cn1cnnn1)(c1ccc(F)cc1F)C(F)(F)C12CC(C1)C2 [Compound 6B] | 2 (≈ 5.84 µM)
8 | N#Cc1ccc(COc2ccc(C#CC34CC(C(F)(F)C(O)(Cn5cnnn5)c5ccc(F)cc5F)(C3)C4)cc2)cc1 (stereo not shown) [Compound 19] | 0.016 (≈ 0.0279 µM)
9 | N#Cc1ccc(C23CC(C(F)(F)C(O)(Cn4cnnn4)c4ccc(F)cc4F)(C2)C3)cc1 (stereo not shown) [Compound 8] | 0.5 (≈ 1.13 µM)
10 | N#Cc1ccc(C23CC(C(F)(F)[C@@](Cn4cncn4)(OCOP(=O)(O)O)c4ccc(F)cc4F)(C2)C3)cc1 [Compound 27A-P2] | 0.5 (≈ 0.905 µM)
11 | OC(Cn1cnnn1)(c1ccc(F)cc1F)C(F)(F)C12CC(c3cccc(OCC(F)(F)F)c3)(C1)C2 (stereo not shown) [Compound 31] | 0.125 (≈ 0.242 µM)
12 | CC(F)(C12CC(c3ccc(OCC(F)(F)F)cc3)(C1)C2)C(O)(Cn1cnnn1)c1ccc(F)cc1F (stereo not shown) [Compound 18] | 0.016 (≈ 0.0312 µM)
13 | OC(Cn1cnnn1)(c1ccc(Cl)cc1F)C(F)(F)C12CC(c3ccc(OCC(F)(F)F)cc3)(C1)C2 (stereo not shown) [Compound 7] | 0.016 (≈ 0.03 µM)

Now from value to compound:

Row | MIC [µg/mL] | SMILES
14 | 0.5 (≈ 0.91 µM) | CC(C)NC[C@H](O)COc1ccc(C23CC(C(F)(F)C(O)(Cn4cnnn4)c4ccc(F)cc4F)(C2)C3)cc1 (stereo partly shown) [Compound 53]
15 | 0.06 (≈ 0.13 µM) | OC(Cn1cnnn1)(c1ccc(F)cc1F)C(F)(F)C12CC(c3ccc4c(c3)OCO4)(C1)C2 (stereo not shown) [Compound 33]
16 | 0.06 (≈ 0.116 µM) | CN1CCN(c2ccc(C34CC(C(F)(F)C(O)(Cn5cnnn5)c5ccc(F)cc5F)(C3)C4)cn2)CC1 (stereo not shown) [Compound 117]
17 | 0.5 (≈ 0.934 µM) | CN(C)C[C@H](O)COc1ccc(C23CC(C(F)(F)C(O)(Cn4cnnn4)c4ccc(F)cc4F)(C2)C3)cc1 (stereo partly shown) [Compound 56]
18 | 0.03 (≈ 0.0571 µM) | OC(Cn1cnnn1)(c1ccc(F)cc1F)C(F)(F)C12CC(c3ccc(OCc4ccccn4)cc3)(C1)C2 (stereo not shown) [Compound 72]
19 | 0.06 (≈ 0.132 µM) | COc1nc(C23CC(C(F)(F)C(O)(Cn4cnnn4)c4ccc(F)cc4F)(C2)C3)cs1 (stereo not shown) [Compound 119]
20 | 0.016 (≈ 0.0381 µM) | CC(C12CC(c3ccc(C#N)cc3)(C1)C2)C(O)(Cn1cncn1)c1ccc(F)cc1F (stereo not shown) [Compound 126]
21 | 0.0078 (≈ 0.0142 µM) | O=S1(=O)CCC(c2ccc(C34CC(C(F)(F)C(O)(Cn5cnnn5)c5ccc(F)cc5F)(C3)C4)cc2)CC1 (stereo not shown) [Compound 163]
22 | 3 (≈ 8.4 µM) | OC12CC(C(F)(F)C(O)(Cn3cncn3)c3ccc(F)cc3F)(C1)C2 (stereo not shown) [Compound 133]
23 | 0.06 (≈ 0.125 µM) | OC(Cn1cnnn1)(CC12CC(c3ccc(OCC(F)(F)F)cc3)(C1)C2)c1ccc(F)cc1F (stereo not shown) [Compound 48]
24 | 0.016 (≈ 0.0302 µM) | OC(Cn1cnnn1)(c1ccc(F)cc1F)C(F)(F)C12CC(c3ccc(CNCC(F)(F)F)cc3)(C1)C2 (stereo not shown) [Compound 161]
25 | 0.13 (≈ 0.244 µM) | O=C1NC[C@H](COc2ccc(C34CC(C(F)(F)C(O)(Cn5cnnn5)c5ccc(F)cc5F)(C3)C4)cc2)O1 (stereo partly shown) [Compound 59]
26 | 0.125 (≈ 0.256 µM) | OC(Cn1cnnn1)(c1ccc(F)cc1F)C(F)(F)C12CC(c3ccc(C(F)(F)F)nc3)(C1)C2 (stereo not shown) [Compound 115]

Same assay, conditions: lowest concentration inhibiting growth of yeast by 50%; 35° C., 24 hours; RPMI1640

Row | SMILES | MIC Candida albicans ATCC MYA-2876 [µg/mL]
27 | O[C@](Cn1cnnn1)(c1cc(F)ccc1F)C(F)(F)C12CC(c3ccc(OCC(F)(F)F)cc3)(C1)C2 [Compound 9A] | 0.06 (≈ 0.116 µM)
28 | OC(Cn1cnnn1)(c1ccc(F)cc1F)C(F)(F)C12CC(c3cnn(CC(F)(F)F)c3)(C1)C2 (stereo not shown) [Compound 120] | 0.125 (≈ 0.255 µM)
